Data on 1 molecule can be found in patent publication US7259148B2, “Hepatoprotective activity of 2′-p-hydroxybenzoylmussaenosidic acid” (Council of Scientific & Industrial Research, priority 2003, dated 2007).

In experiment [1] the test system is GalN induced hepatic injury in rats. As to the kind of experiment: Hepatoprotective activity (in vivo) against GalN (galactosamine) induced hepatic injury in rats. The source says:
On treatment of experimental animals with galactosamine (GaIN) induced hepatic damage the hepatoprotective activity observed with 033 and 033 (2) was 59.58 & 50.75, 56.62 & 43.64, 54.28 & 50.11, 57.71 & 57.57, 57.89 & 44.76 percent in serum GPT, GOT, Bilirubin, ALP, and TG respectively and 67.51 & 38.65, 66-56 & 48.10 percent in liver homogenate lipid peroxidation (LP) and GSH respectively. The same with silymarin was 57.38, 55.40, 60.00. 53.54,46.17, 69.59, 67.18 percent respectively (Table-2). Advantages of the present invention over currently used plant based hepatoprotectives: • 1. […] Silymarin is a mixture of three constituents whose relative proportion varies from batch to batch while negundoside is a pure compound. [table]

The subject of experiment [2] is CCl4 induced hepatic injury in rats. As to the kind of experiment: Hepatoprotective activity (in vivo) against CCl4 induced hepatic injury in rats. The source says: 033 and 033 (2) reduced the elevated levels of serum OPT, GOT, ALP, bilirubin, TG and liver homogenate lipid peroxidation and increased the GSH level. […] The same with silymarin was: 58.44, 51:63, 52,26,57.50,41.30,62.05 & 60.15% respectively. (Table-1). [table]

Where [3] appears, read: rats, GalN 300 mg/kg s.c., fed p.o. at 48 h, 24 h, 2 h before and 6 h after, 033 400 mg/kg, 033 (2) and silymarin 50 mg/kg, n=6.
The mark [4] stands for this setting: rats, CCl4 1 ml/kg p.o., fed p.o. at 48 h, 24 h, 2 h before and 6 h after, 033 400 mg/kg, 033 (2) and silymarin 50 mg/kg, n=6.

`C[C@]1(O)CC[C@@H]2C(C(=O)O)=CO[C@@H](O[C@@H]3O[C@H](CO)[C@@H](O)[C@H](O)[C@H]3OC(=O)c3ccc(O)cc3)[C@@H]21` [033 (2), 2′-p-hydroxybenzoylmussaenosidic acid]: the “Hepatoprotective activity in words” value in experiment [1] (experimentally induced hepatic damage with galactosamine (GalN) in rats) is “marked hepatoprotective activity”. In experiment [1] (setting [3]), the “Hepatic Glutathione (GSH, liver homogenate): mean percent hepatoprotective activity” value was 48.10%; the “Hepatic Lipid peroxidation (LP, liver homogenate): mean percent hepatoprotective activity” value came out at 38.65%; the “Serum ALP: mean percent hepatoprotective activity” value is 57.57%; the “Serum Bilirubin (mg %): mean percent hepatoprotective activity” value worked out at 50.11%. In experiment [1] (setting [3]), the “Serum GOT (Units): mean percent hepatoprotective activity” value is given as 43.64%, the “Serum GPT (Units): mean percent hepatoprotective activity (GPT)” value is recorded as 50.75% and the “Serum Triglycerides (mg %): mean percent hepatoprotective activity” value came out at 44.76%. Also, the “Hepatoprotective activity in words” value in experiment [2] (experimentally induced hepatic damage in rodents, CCl4 as hepatotoxin) is “marked hepatoprotective activity”. Also, in experiment [2] (setting [4]), the “Hepatic Glutathione (GSH, liver homogenate): mean percent hepatoprotective activity” value is 45.56%; the “Hepatic Lipid peroxidation (liver homogenate): mean percent hepatoprotective activity” value came to 45.85%; the “Serum ALP: mean percent hepatoprotective activity” value is recorded as 53.95%; the “Serum Bilirubin (mg %): mean percent hepatoprotective activity” value is given as 66.66%. Also, in experiment [2] (setting [4]), the “Serum GOT (Units): mean percent hepatoprotective activity” value worked out at 58.05%, the “Serum OPT (Units): mean percent hepatoprotective activity (reduction of elevated GPT)” value is given as 60.34% and the “Serum Triglycerides (mg %): mean percent hepatoprotective activity” value came out at 44.19%.
